# Laboratory results as given in patent US20040141995A1, “MHC class I-restricted and MHC class II-restricted EBNA1 peptides” (priority 2002, published 2004).
# Like-named read-outs stand apart in the source and are kept apart here.
# Columns and labels:
# Format in all cases: cell-based, human
# [1] = tested on: M3-W1-B9 CD8+ T cell recognition of HEK293/B8/EBNA1-GFP, LCL111 and 1359mel/EBNA1-GFP target cells; assay: Effect of inhibitors on M3W1-B9 CD8+ T cell recognition of EBNA1-expressing target cells (IFN-γ release); conditions: for dose dependence of inhibition of M3-W1-B9 CD8+ T cell recognition of HEK293/B8/EBNA1-GFP target cells: different concentrations of protease inhibitors (FIG. 14C); for effect on M3W1-B9 CD8+ T cell recognition of HEK293 transfected with HLA-B8 plus EBNA1-GFP: target cells treated with inhibitor, co-cultured with T cells overnight, IFN-γ release
# Description: (§1) HEK 293 cells co-transfected with EBNA1-GFP were treated with various concentrations of ZAL inhibitor for 10 h. After washing, cells were incubated with T cells overnight for IFN-γ release assays. Various dilutions of DMSO were used as controls. T cell activity in the absence of inhibitor was used as 100% activity.
# (§2) HLA-B8 expressing HEK293/EBNA1-GFP target cells were treated with an emetine inhibitor at three concentrations for 1h. After three washings, cells were co-cultured with M3-W1-B9 CD8^+ T cells overnight for IFN-γ release assays. […] HLA-B8 positive 1359 cells with the EBNA1-P518-526 peptide after the treatment of 1359mel cells were pulsed with 3 different concentration of emetine. FIG. 13B illustrates the determination of the sensitivity of recognition of TRP2-specific CD8 T cells to the treatment with emetine. 1363mel cells were treated with 3 different concentrations of emetine. After 3 washes, the cells were co-cultured with TRP2-specific CD8 ^+ T cells. The treated cells pulsed with a TRP2 peptide were used to examine the effect of emetine on recognition of MHC class I/TRP2 complexes on the cell surface; and
# (§3) Target cells were incubated with various protease inhibitors for 2 h, washed and co-cultured with CD8^+ T cells overnight for IFN-γ release assays. Solvents used to solubilize inhibitors were also used as controls. […] Target cells were treated with different concentrations of protease inhibitors. After washes, the treated cells were co-cultured with M3-W1-B9 CD8^+ T cells overnight for IFN-γ release assays.
# Target cells were incubated in the absence or presence of various concentrations of inhibitors for different period of time, depending on the type of inhibitors used. The cells were then washed and counted and co-cultured with T cells overnight for IFN-γ release assays. The solvents used to dissolve the inhibitors, such as DMSO, methanol and ethanol were also used as controls.
# (§4) HEK293 cells were transfected with EBNA1-GFP and HLA-B8 cDNAs, and then treated them with different concentrations of ZAL and lactacystin, specific inhibitors of proteasomes. […] To exclude the potential nonspecific effect of ZAL on T cell recognition, the effects of ZAL inhibitor were tested on melanoma-reactive TIL102-CD4^+ T cells, which recognize a MHC class II-restricted epitope on the cell surface of 102mel tumor cells, and of P3-B7 CD4^+ T cells, which recognize HLA-DP3 expressing HEK293 cells transfected with Ii-EBNA1 as target cells. […] The effects of lactacystin, another specific proteasome inhibitor, were also tested on T cell recognition.
# HLA-B8 expressing HEK293/EBNA1-GFP cells were treated with different concentrations of irreversible (emetine) and reversible (puromycin and cycloheximide) protein synthesis inhibitors for 1 h. After washing to remove inhibitors, the treated cells were co-cultured with antigen-specific CD8^+ T cells. […] Since blocking protein synthesis should rapidly decrease the peptide supply required for the export of MHC class I molecules from the ER to the cell surface as well as synthesis of MHC class I molecules, the treatment of cells with emetine would decrease the overall antigen presentation by MHC class I molecules.
# [2] = tested on: 1359mel-specific CD8+ T cell recognition of 1359mel cells
# Description: as §3
# To test whether TPCK or AEBSF affected T cell recognition of other antigens, 1359mel were treated with the same concentrations of TPCK or AEBSF as described in FIG. 14A. […] AEBSF is an irreversible, specific inhibitor of serine proteases, while TPCK is an irreversible inhibitor of chymotrypsin and many other serine and cysteine proteases.
# [3] = tested on: TRP2-specific CD8+ T cell recognition of 1363mel cells; assay: Effect of emetine on recognition of 1363mel cells by TRP2-specific CD8+ T cells
# Description: as §2
# HLA-B8 positive 1359mel cells were pulsed with the EBNA1-P518-526 peptide after the cells were treated with different concentrations of emetine and washed. […] 1363mel cells (TRP2^+ and HLA-A2^+) were treated with different concentrations of emetine, and then tested for their ability to stimulate TRP2-specific CD8^+ T cells. […] However, there was only 30% inhibition of T cell recognition at 1 μM emetine treatment compared with over 90% inhibition of EBNA1-specific CD8^+ T cells at the same concentration of emetine (FIG. 13A). […] On the other hand, the processing and presentation of the TRP2 and CD4^+ T cell EBNA1 epitopes are less dependent on the production of short-lived DRiPs.
# [4] = tested on: P3-B7 CD4+ T cell recognition of HEK293/DP3/Ii-EBNA1 target cells; assay: Effect of inhibitors on P3-B7 CD4+ T cell recognition of EBNA1 target cells; conditions: Homo sapiens, CD4+ T cell; 1 μM emetine; read-out: inhibition of EBNA1-specific P3-B7 CD4+ T cell recognition
# Description: as §1, §4
# HLA-B8 positive 1359mel cells were pulsed with the EBNA1-P518-526 peptide after the cells were treated with different concentrations of emetine and washed. […] 1363mel cells (TRP2^+ and HLA-A2^+) were treated with different concentrations of emetine, and then tested for their ability to stimulate TRP2-specific CD8^+ T cells. […]
SMILES,dose dependence of inhibition of M3-W1-B9 CD8+ T cell recognition of HEK293/B8/EBNA1-GFP target cells [1],effect on M3W1-B9 CD8+ T cell recognition of HEK293 transfected with HLA-B8 plus EBNA1-GFP ([1]; washed),inhibition of recognition of 1359mel cells by 1359mel-specific CD8+ T cells ([2]; same inhibitor concentrations as FIG. 14A),inhibition of recognition of 1359mel cells by 1359mel-specific CD8+ T cells [2],effect on T cell recognition of TRP2 peptide-pulsed target cells after inhibitor treatment [3],"inhibition at 1 µM ([3]; Homo sapiens, T-cell, 1 μM emetine, read-out: inhibition of recognition of 1363mel target cells by TRP2-specific CD8+ T cells)",concentration dependence of inhibition of recognition of 1363mel target cells by TRP2-specific CD8+ T cells ([3]; different concentrations of emetine),inhibition of M3W1-B9 CD8+ T cell recognition of HLA-B8 expressing HEK293/EBNA1-GFP target cells ([1]; 5 μM inhibitor for 1 h),"inhibition at 1 µM ([1]; Homo sapiens, T-cell, 1 h, 1 μM inhibitor for 1 h, read-out: inhibition of M3W1-B9 CD8+ T cell recognition of HLA-B8 expressing HEK293/EBNA1-GFP target cells)","effect on T cell recognition of 1359mel cells pulsed with EBNA1-P518-526 peptide after inhibitor treatment ([1]; different concentrations of emetine, washed, then peptide-pulsed)",inhibition at 1 µM [4]
NCCc1ccc(S(=O)(=O)F)cc1 [AEBSF],in a dose-dependent manner,significantly blocked,No inhibition,–,–,–,–,–,–,–,–
Cc1ccc(S(=O)(=O)N[C@@H](Cc2ccccc2)C(=O)CCl)cc1 [TPCK],in a dose-dependent manner,significantly blocked,–,No inhibition,–,–,–,–,–,–,–
CC[C@H]1CN2CCc3cc(OC)c(OC)cc3[C@@H]2C[C@@H]1C[C@H]1NCCc2cc(OC)c(OC)cc21 [emetine],–,–,–,–,slightly inhibited,30%,increased with the increasing concentrations,completely inhibited,94%,slightly inhibited,20%
